Source: patent publication US8222008B2, “Methods and compositions for treating cancer” (The Administrators of The Tulane Educational Fund, priority 2003, dated 2012)

Assays:
GM005399 cells = assay: Apoptosis on serum withdrawal, CaspACE; format: cell-based, human; settings: serum withdrawal and CDME
Method: Induction of apoptosis and assays for its detection were performed using commercially available reagents. Normal and cystinotic fibroblasts were matched for passage number (±3) and cell density, and then exposed to an apoptotic trigger. One apoptotic trigger used was TNF-a (30 ng/mL) with actinomycin D (2.5 μg/mL) for 16 hours. Another trigger was anti-Fas antibody (500 ng/mL) with actinomycin D (2.5 μg/mL) for 16 hours. A third trigger to induce apoptosis in the cells was Ultraviolet B light (60 mJ). See, e.g., previously described protocols of Aggarwal B B, 1992 Immunol. Ser., 56:61-78; Higuchi M. et al, 1995 J. Immunol. Meth., 178:173-181; Itoh N, et al, 1991 Cell, 66:233-243; Itoh N. et al, 1993 J. Biol. Chem., 268:10932-10937. Serum withdrawal was also used as a apoptotic stimulus (Lieberthal W, et al, 1998 Am. J. Physiol. 275:F691-F702; Verzola D. et al, 2001 Exp Nephrol., 9:366-371; Iglesias J. et al, 1999 Am. J. Physiol. 277:F711-F712; Kulkarni G V, et al, 1994 J. Cell Sci., 107:1169-1179), in which case the cells were incubated in F12 medium without serum for 24 hours and then analyzed for apoptosis.
1. […] The cells were visually enumerated by fluorescence microscopy, scoring a minimum of five fields (250 to 300 cells) for fluorescence in triplicate followed by counting all cells in the same field by light microscopy, with a minimum of 750 cells scored per condition. […]

normal fibroblasts = assay: Phase micrographs, apoptotic morphology; format: cell-based, human; settings: normal cells with CDME added, TNF-α exposure
Excerpt: Phase micrographs (not shown) were also obtained of normal fibroblasts after TNF-α exposure alone, in normal fibroblasts in CDME, and in nephropathic fibroblasts after TNF-α exposure alone. Typical apoptotic morphology was observed, i.e., typical blebs in the plasma membrane are seen after treatment with TNF-a in both normal and cystinotic cell lines and the modulating effects of MEA and CDME was seen.

RPTE cells = assay: Annexin V and propidium iodide staining; format: cell-based, human; settings: TNF-a after loading with 0.1 mM CDME
Method: 3. The Annexin V Assay • Annexin V-propidium iodide (PI) staining was performed as described by the manufacturer (Annexin V Fluos kit directions, Roche Laboratories) one time after TNF-a stimulation. D. Cystine Binding Protein Assay
Lysosomal cystine loading of RPTE cells was accomplished by exposure to 0.1 mM or 0.25 CDME in normal REGM for 1 hour before treatment with or without apoptotic triggers.
Exposure of RPTE cells to TNF-a after cystine loading by exposure to 0.1 mM CDME and analysis by Annexin V and Propidium iodide staining yielded 4.3% Annexiv V positive cells and zero PI positive cells at 1 h after exposure, 9.5% and 1.7% at 3 hours and 25.3% and 9.1% at 6 hours. The proportion of necrotic RPTE cells increased with duration of exposure to CDME, but remained substantially less than the number of those that are apoptotic.

kidney of black mice = assay: Kidney cystine concentration after CDME injection (CBP and BCA assays); format: in vivo, mouse
Method: Intracellular lysosomal free cystine was determined using a cystine binding protein (CBP) assay (Oshima et al, 1974 J. Biol. Chem., 249:6033-6039). CBP was procured from Riverside Scientific. The assay has a sensitivity of 0.1 μM. Total cell protein was determined by a modification of the Lowry method (Lowry O. et al 1951 J. Biol. Chem., 193:265-275). Statistical analyses were performed using paired t test for means with SSPS for Windows. Results are mean+/−1.0 SD (FIG. 3).
CDME was evaluated in mice for cystine generation in response to varying doses as follows: A stock solution of CDME in PBS was prepared having a concentrations of 1.8 g CDME/500 μL PBS. The stock solution was diluted to generate solutions for administration. 500 μL of diluted solutions were injected intraperitoneally into black mice (body mass ˜0.03 kg). All injections were performed in duplicate.
Following administration of the solutions of Table 6, the endogenous cystine concentrations in two organs (kidney and liver) were examined for the 6 mice, i.e., the CDME-injected mice as well as black, heterozygous, and wild-type control mice. The analysis was performed using the cystine binding protein CBP assay of Example 1 and the Bicinchoninic Acid BCA assay (Pierce Biotechnology) for total protein concentration.

In the case of `COC(=O)[C@@H](N)CSSC[C@H](N)C(=O)OC` [CDME, cystine dimethyl ester], the “% Apoptosis” value (GM005399 cells) is reported as 37.3%, the “apoptotic morphology in phase micrographs” value (normal fibroblasts) is reported as “Enhanced apoptosis” and the “Annexin V positive cells” value (RPTE cells; 1 h after exposure) is reported as 4.3%. For the same molecule, the PI positive cells (RPTE cells; 1 h after exposure) was “zero”, the “Annexin V positive cells” value (RPTE cells; 3 hours) was 9.5% and the PI positive cells (RPTE cells; 3 hours) was 1.7%. The “Annexin V positive cells” value (RPTE cells; 6 hours) was 25.3%, the PI positive cells (RPTE cells; 6 hours) was 9.1% and the “Kidney Cystine Concentration” value (kidney of black mice; 10,000 mg CDME/kg intraperitoneally, Mouse #3) was 97 nmol cystine/mg protein. The “increase in intralysosomal cystine” value (kidney of black mice; CDME-injected mice versus controls) was ~100 fold.
